One molecule from patent US11834663B2, “Fibrotic treatment” (Monash University, priority 2015, dated 2023) can be followed below.

Experiment [1] concerns kidneys of aged (18-22 month old) WT mice. Briefly: Reversal of age-induced kidney fibrosis in aged WT mice. The class given is in vivo, mouse. The procedure:
There are 8 different sets of in vivo experiments in this study: • A) Phenotypic characterisation of the heart and blood vessels in global IRAP knockout mice and their WT controls treated for 4 weeks with Angiotensin (Ang) II (800 ng/kg/min; s.c.) where mouse hearts and blood vessels were compared to tissue obtained from young WT and IRAP^−/− mice treated with saline. • B) Prevention of Ang II-induced changes in the cardiovascular system following IRAP inhibitor treatment. In the prevention model, WT mice were treated with Ang II (800 ng/kg/min; s.c.)±the IRAP inhibitor (HFI-419; 500 ng/kg/min for 28 days) or HFI-vehicle (1 DMSO:3 HBC). • C) Phenotypic characterisation of the aged heart, kidney and blood vessels in the global IRAP knockout mice where aged WT and IRAP^−/− mouse hearts, kidneys and blood vessels were compared to tissue obtained from young WT and IRAP^−/− mice. • D) Reversal of the age-induced changes in the cardiovascular system following IRAP inhibitor treatment. […]
To measure collagen deposition, frozen sections of heart, kidney or aorta (all 5 μm thickness) were air dried for 10 minutes and were brought through 3 times xylene (2 minutes each), and 3 times absolute alcohol washes before being rinsed in tap H2O for 30 seconds. […] Images were taken under ×20 magnification, using bright field (Olympus, BX51) and circularized polarized light microscopy (DM IRB, Leica) while percentage of positive interstitial collagen staining per total field of view was quantified using ImageJ 1.46 software (Java, NIH), and averaged out from a total of eight views as the final percentage collagen content in a particular animal. […]

Experiment [2] relates to transverse heart sections from Ang II-infused WT mice. Briefly: Angiotensin II infusion prevention model: cardiac hypertrophy, fibrosis, ROS and inflammatory markers. The class given is in vivo, mouse. The following applies: Ang II + HFI-419, 4 weeks. As for the experimental part: There are 8 different sets of in vivo experiments in this study: • A) Phenotypic characterisation of the heart and blood vessels in global IRAP knockout mice and their WT controls treated for 4 weeks with Angiotensin (Ang) II (800 ng/kg/min; s.c.) where mouse hearts and blood vessels were compared to tissue obtained from young WT and IRAP^−/− mice treated with saline. • B) Prevention of Ang II-induced changes in the cardiovascular system following IRAP inhibitor treatment. In the prevention model, WT mice were treated with Ang II (800 ng/kg/min; s.c.)±the IRAP inhibitor (HFI-419; 500 ng/kg/min for 28 days) or HFI-vehicle (1 DMSO:3 HBC). • C) Phenotypic characterisation of the aged heart, kidney and blood vessels in the global IRAP knockout mice where aged WT and IRAP^−/− mouse hearts, kidneys and blood vessels were compared to tissue obtained from young WT and IRAP^−/− mice. • D) Reversal of the age-induced changes in the cardiovascular system following IRAP inhibitor treatment. In the reversal model, aged WT mice were treated with either saline, IRAP inhibitor (HFI-419 at 500 ng/kg/min; compound 1 at 500 ng/kg/min; compound 2 at 50 ng/kg/min) or HFI-vehicle (1 DMSO: 3 HBC) for 4 weeks. • E) Prevention of ischemic-reperfusion injury in isolated hearts taken from aged global IRAP knockout mice and aged IRAP inhibitor (HFI-419 at 500 ng/kg/min; s.c.) treated WT mice compared to age-matched vehicle-treated (1 DMSO:3 HBC; s.c.) WT controls. • F) Phenotypic characterization of cardiac function using echocardiography in the aged global IRAP knockout mice compared to aged and young WT mice. • G) Phenotypic characterization of liver steatosis in IRAP knockout mice in a high fat diet (HFD) model. • H) Reversal of the salt-induced fibrosis in the liver following IRAP inhibitor treatment.
To measure collagen deposition, frozen sections of heart, kidney or aorta (all 5 μm thickness) were air dried for 10 minutes and were brought through 3 times xylene (2 minutes each), and 3 times absolute alcohol washes before being rinsed in tap H2O for 30 seconds. Staining with an optimal concentration of picrosirius red (in this instance 0.05% picrosirius red diluted in saturated picric acid) was performed and left for an hour. Sections were then rinsed in water and differentiated in 0.01 M HCl for 2 minutes, followed by dehydration via 3 times absolute alcohol washes. Then, slides were brought through 3 times xylene washes before being cover slipped according to standard histological techniques using DPX as the mounting medium. Images were taken under ×20 magnification, using bright field (Olympus, BX51) and circularized polarized light microscopy (DM IRB, Leica) while percentage of positive interstitial collagen staining per total field of view was quantified using ImageJ 1.46 software (Java, NIH), and averaged out from a total of eight views as the final percentage collagen content in a particular animal.
Ventricular weight (VW) was compared to the body weight (BW) as a ratio of VW:BW (mg/g), as well as comparison of VW to tibial length (TL) in as a ratio of VW:TL (mg/mm) respectively. The hearts that were embedded in OCT and frozen were transversely sectioned in a cryostat at 5 μm thickness, and stained with Hematoxylin and Eosin (Amber Scientific) for morphological examination of cell structure. The average of 100 cardiomyocytes per heart section was performed under 60× magnification and analyzed using Image J.
Immunostaining was performed on either 5 μm thick transverse frozen heart sections or 5 μm thick frozen thoracic aortic. These sections were air dried and fixed in ice-cold acetone for approximately 15 minutes before washing with 0.01M PBS buffer (3×10 minutes). Sections were then incubated with 10% goat serum in 0.01M PBS for 30 minutes to reduce non-specific binding. […]

The structures appear in SMILES notation.

As to `CCOC(=O)C1=C(NC(C)=O)Oc2cc(O)ccc2C1c1cccnc1` (stereo not drawn) [HFI-419], the “IRAP expression in kidneys” value in experiment [1] (aged WT mice, HFI-419 500 ng/kg/min s.c., 4 weeks, FIG. 22b) was “tended to be decreased”. Besides, the “αSMA-positive myofibroblast expression in kidneys” value in experiment [1] (aged WT mice, HFI-419 4 weeks vs vehicle, FIG. 24b) is “trend towards reduced”. Further, the “age-induced collagen deposition in kidney (interstitial fibrosis, picrosirius red)” value in experiment [1] (~20 month old WT mice, HFI-419 500 ng/kg/min s.c., 4 weeks, FIG. 23) is “completely reverse”. The “Ang II-mediated increase in cardiac hypertrophy (cardiomyocyte cross-sectional area, H&E)” value in experiment [2] (FIG. 5a) is listed as “prevented”. Also, the “interstitial collagen expression in heart (picrosirius red, brightfield)” value in experiment [2] (FIG. 5b) is “significantly decreased”. In addition, in experiment [2] (FIG. 6), the “protein expression of TGF-β1 in heart (western blot)” value is recorded as “decreased”, the “vimentin staining in heart (marker for fibroblast expression)” value was “no change” and the “α-SMA staining in heart (marker for myofibroblast expression)” value was “decreased”. Also, in experiment [2] (FIG. 7), the “Ang II-induced increase in cardiac superoxide generation (DHE)” value is reported as “prevented”; the “ICAM-1 expression and protein content in heart” value is on record as “decreased”; the “MCP-1 expression in heart” value is given as “decreasing”; the “P-IκBα expression in heart” value was “decreased”. In addition, in experiment [2] (FIG. 7), the “expression of NOX-2 in heart” value is recorded as “no effect” and the “macrophage (F4/80) expression in heart” value is listed as “decreasing”. Further, the “perivascular expression of TGF-β1 in heart” value in experiment [2] (immunofluorescence, FIG. 6) is “decreased”.
